Results published in patent publication US20130288990A1, “CONTROLLING PESTS BY COMBINING INSECTICIDES AND TRANSGENIC PLANTS BY APPLYING DIRECTLY TO LEAVES AND ROOTS” (priority 2007, published 2013).

What was measured:
Format in all cases: in vivo
Heliothis armigera = Heliothis armigera test (leaf application), transgenic cotton
Source text: (§1) A synergistic effect in insecticides and acaricides is always present when the effect of the present invention's combinations is greater than the expected effect, which for a given combination can be calculated after S. R. Colby, Weeds 15 (1967), 20-22 as follows:
(§2) when • X is the kill rate expressed in % of the untreated control on using active compound A at an application rate of m g/ha or in a concentration of m ppm, • Y is the kill rate expressed in % of the untreated control on using active compound B at an application rate of n g/ha or in a concentration of n ppm and • Z is the kill rate expressed in % of the untreated control on using active compound C at an application rate of r g/ha or in a concentration of r ppm, • E is the efficacy on using active compounds A and B and C in application rates of m and n and r g/ha then
(§3) If the actual kill rate is greater than calculated, then the killing effect of the combination is superadditive, i.e., a synergistic effect is present. In this case, the actually observed kill rate has to be greater than that calculated from the above-recited formula for the expected kill rate (E).
Individually potted transgenic cotton plants with Lepidoptera resistance and herbicide resistance (line DP444 BG/RR) are treated with the desired product against the cotton ball worm (Heliothis armigera).
(§4) After the desired time, the kill in % is determined 100% means that all the caterpillars were killed; 0% means that no caterpillars were killed.

Spodoptera exigua = Spodoptera exigua test (leaf application), transgenic maize
Source text: as §1, §2, §3
Pots each holding 5 transgenic maize plants with Lepidoptera, Coleoptera and/or herbicide resistance are treated in 2 replications against the small mottled willow (Spodoptera exigua).
as §4

Spodoptera frugiperda [1] = test: Spodoptera frugiperda test (leaf application), transgenic maize
Source text: as §1, §2, §3
Pots each holding 5 transgenic maize plants with Lepidoptera, Coleoptera and/or herbicide resistance are treated in 2 replications against the army worm (Spodoptera frugiperda).
as §4

Spodoptera frugiperda [2] = test: Spodoptera frugiperda test (drench application), transgenic maize
Source text: as §1, §2, §3
The earth of the pots each with 5 transgenic maize plants with Lepidoptera, Coleoptera and/or herbicide resistance is drenched with the desired product. Then, the plants are infected with larvae of the army worm (Spodoptera frugiperda).
as §4

Aphis gossypii = Aphis gossypii test (leaf application), transgenic cotton
Source text: as §1, §2
as §3, with “(E). […]” for “(E).”
After the desired time, the kill in % is determined 100% means that all the aphids were killed; 0% means that no aphids were killed.

Spodoptera frugiperda [3] = test: Spodoptera frugiperda test (leaf application), transgenic cotton
Source text: as §1, §2, §3
Individually potted transgenic cotton plants with Lepidoptera resistance and herbicide resistance (line DP444 BG/RR) are treated with the desired product against the army worm (Spodoptera frugiperda)
as §4

Abamectin
Kill in % after 4 d (Heliothis armigera; 0.16 ppm): 30%
Kill in % after 4 d (Spodoptera exigua; 0.16 ppm): 35%
Kill in % after 1 d (Spodoptera frugiperda [1]; 0.16 ppm): 10%
Kill in % after 1 d (Spodoptera frugiperda [2]; 4 ppm): 0%
Kill in % after 4 d (Spodoptera frugiperda [2]; 4 ppm): 0%

CNC(=O)c1cc(Cl)cc(C)c1NC(=O)c1cc(Br)nn1-c1ncccc1Cl [(I-1)]
Kill in % after 4 d (Aphis gossypii; 0.16 ppm): 0%
Kill in % after 4 d (Heliothis armigera; 0.032 ppm): 50%
Kill in % after 4 d (Spodoptera frugiperda [3]; 0.032 ppm): 70%
Kill in % after 6 d (Spodoptera frugiperda [3]; 0.032 ppm): 15%
Kill in % after 4 d (Spodoptera exigua; 0.032 ppm): 0%
Kill in % after 1 d (Spodoptera exigua; 0.16 ppm): 0%
Kill in % after 4 d (Spodoptera exigua; 0.16 ppm): 0%
Kill in % after 4 d (Spodoptera frugiperda [1]; 0.0064 ppm): 0%
Kill in % after 1 d (Spodoptera frugiperda [1]; 0.16 ppm): 0%
Kill in % after 4 d (Spodoptera frugiperda [2]; 4 ppm): 0%
Kill in % after 1 d (Spodoptera frugiperda [2]; 20 ppm): 30%
Kill in % after 3 d (Spodoptera frugiperda [2]; 20 ppm): 45%
Kill in % after 4 d (Spodoptera frugiperda [2]; 20 ppm): 50%

CN/C(=N\[N+](=O)[O-])NCc1cnc(Cl)s1 [Clothianidin]
Kill in % after 4 d (Heliothis armigera; 0.16 ppm): 0%
Kill in % after 4 d (Spodoptera frugiperda [3]; 0.16 ppm): 0%
Kill in % after 1 d (Spodoptera exigua; 4 ppm): 0%
Kill in % after 4 d (Spodoptera frugiperda [2]; 4 ppm): 10%

N#Cc1nn(-c2c(Cl)cc(C(F)(F)F)cc2Cl)c(N)c1[S+]([O-])C(F)(F)F (stereo not drawn) [Fipronil]
Kill in % after 4 d (Aphis gossypii; 4 ppm): 25%
Kill in % after 4 d (Spodoptera exigua; 4 ppm): 0%
Kill in % after 4 d (Spodoptera frugiperda [2]; 20 ppm): 0%

O=[N+]([O-])NC1=NCCN1Cc1ccc(Cl)nc1 [Imidacloprid]
Kill in % after 6 d (Spodoptera frugiperda [3]; 4 ppm): 10%
Kill in % after 1 d (Spodoptera exigua; 4 ppm): 0%
Kill in % after 1 d (Spodoptera frugiperda [1]; 4 ppm): 0%
Kill in % after 3 d (Spodoptera frugiperda [2]; 4 ppm): 0%

Spinosad
Kill in % after 4 d (Heliothis armigera; 0.16 ppm): 20%
Kill in % after 4 d (Spodoptera exigua; 0.16 ppm): 20%
Kill in % after 4 d (Spodoptera frugiperda [1]; 0.16 ppm): 0%
Kill in % after 4 d (Spodoptera frugiperda [2]; 4 ppm): 0%
